Assay: Decrease in potency by HPLC of aqueous 1 mg/mL (R,R)-pyrodach-2 solutions in a variety of buffers at ambient temperature
Type: physicochemical
Text: Chem. 47, 7942 (2008)). Thus, simple dissolution of (R,R)-pyrodach-2 affords an acidic solution. […] At higher pHs, where the acid groups of (R,R)-pyrodach-2 are ionized, the solubility of (R,R)-pyrodach-2 increases. In addition, deprotonation of the acid groups in (R,R)-pyrodach-2 dramatically reduces the rate of hydrolytic degradation. […] Thus, controlling the pH of an aqueous solution in the physiological pH range, much less the accurate and reproducible preparation of aqueous (R,R)-pyrodach-2 solutions in this pH range by pH adjustment of an aqueous solution of (R,R)-pyrodach-2 with hydroxide base, is extremely difficult. […] This presents a unique challenge as the pyrophosphate ligand in (R,R)-pyrodach-2 is kinetically labile in solution and can potentially undergo reaction with anions present in many buffers. […] [table]

Structure (SMILES): O=P1(O)OP(=O)(O)[O][Pt]2([NH][C@@H]3CCCC[C@H]3[NH]2)[O]1 (stereo partly drawn) [(R,R)-pyrodach-2, (R,R)-trans-1,2-cyclohexanediamine-(dihydrogenpyrophosphato)platinum(II)]
- Decrease in Potency (Acetate 20 mM, pH 5.32, 7 days): 13.5%
- Decrease in Potency (Citric acid 20 mM, pH 6.51, 4 days): 1.9%
- Decrease in Potency (Citric acid 20 mM, pH 6.51, 11 days): 3.9%
- Decrease in Potency (L-arginine 20 mM, pH 7.72, 4 days): 4.0%
- Decrease in Potency (L-arginine 20 mM, pH 7.72, 11 days): 10%
- Decrease in Potency (NH4HCO3 20 mM, pH 7.68, 14 days): 8.0%
- Decrease in Potency (NH4HCO3 50 mM, pH 7.83, 14 days): 18.0%
- Decrease in Potency (NH4HCO3 100 mM, pH 7.94, 14 days): 47.1%
- Decrease in Potency (Triethanolamine 20 mM, pH 7.97, 4 days): 1.9%
- Decrease in Potency (Triethanolamine 20 mM, pH 7.97, 11 days): 5.7%
